These results are taken from patent publication US12037324B2, “Biarylmethyl heterocycles” (Université de Montréal, priority 2016, dated 2024).

Each structure is given as a SMILES string. Some results are limits rather than exact numbers.

Holding throughout (assay type): cell-based
In experiment [1] the target is T1, hAT1R (Homo sapiens, UniProt P30556).
T1 sequence (P30556 1-359): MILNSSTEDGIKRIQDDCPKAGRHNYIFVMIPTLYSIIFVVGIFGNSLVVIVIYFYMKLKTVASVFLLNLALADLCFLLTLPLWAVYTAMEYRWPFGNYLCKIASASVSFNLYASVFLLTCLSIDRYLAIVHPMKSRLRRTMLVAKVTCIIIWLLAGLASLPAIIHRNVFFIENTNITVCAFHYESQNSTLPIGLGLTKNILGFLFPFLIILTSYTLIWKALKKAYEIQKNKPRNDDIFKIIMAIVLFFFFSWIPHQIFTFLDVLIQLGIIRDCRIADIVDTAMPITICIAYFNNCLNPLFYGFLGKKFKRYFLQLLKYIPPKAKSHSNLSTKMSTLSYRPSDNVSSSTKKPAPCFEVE
The experiment can be described thus: BRET β-arrestin2 biosensor assay, higher receptor expression (hAT1R 5 ng/well), HEK293 cells. Particulars: for EC50: High AT1R Expression. On the technique in general: BRET reads energy transfer from a luciferase to a nearby fluorophore.

Experiment [2] has as its target T2, AGTR1 (Homo sapiens, UniProt P30556).
T2 construct: host or cells: Pathunter CHO-K1 AGTR1 β-arrestin cell line (CHO-K1)
T2 sequence (P30556 1-359): T1 sequence (P30556 1-359)
Put plainly: DiscoveRx β-arrestin2 recruitment assay (enzyme complementation, Pathunter CHO-K1 AGTR1 β-arrestin cell line). The conditions noted are these: DiscoveRx β-arrestin2 recruitment; for DiscoveRx β-arrestin2 Ymax (%): maximal response. The method, boiled down:
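CHO-K1 cells expressing AGTR1 with β-arrestin2 enzyme-complementation reporter, plated 14-16 h ahead in 1% serum medium, then exposed to compounds for 90 min at 37° C. Chemiluminescence read after 1 h detection. EC50 (agonist) or IC50 (antagonist) from 4-parameter logistic fit; activity as percentage of All maximal effect.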
In general terms: Activated receptors often draw arrestin, which recruitment assays turn into a signal.

Experiment [3] addresses T2, AGTR1. Put plainly: DiscoveRx IP1 accumulation assay (HTRF), agonist mode, Pathunter CHO-K1 AGTR1 β-arrestin cell line. Particulars: for EC50: read-out: IP-1 EC50. The method, boiled down: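 Agonist mode in CHO-K1 AGTR1 β-arrestin cells plated 14-16 h before; compounds at varying concentrations for 90 min at 37° C, IP1 accumulation read by HTRF (D2-conjugate and anti-IP1 cryptate, 20 min room temperature). EC50 from 4-parameter logistic fit; activity given as percentage of maximal AII effect.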

By EC50 is commonly meant the concentration needed to bring the measured effect to its halfway point. For `CCc1nc2c(C)cc(C)nc2n1Cc1ccc(-c2cc(OCc3ccccc3)ccc2-c2nnn[nH]2)cc1` [Example 212, 3-((5′-(Benzyloxy)-2′-(1H-tetrazol-5-yl)-[1,1′-biphenyl]-4-yl)methyl)-2-ethyl-5,7-dimethyl-3H-imidazo[4,5-b]pyridine], in experiment [1], the “BRET β-Arrestin2 High AT1R Expression Ymax (%)” value was 29.2% and the concentration for a half-maximal effect (EC50) was determined as 10.6 nM. For the same compound, in experiment [2], the EC50 worked out at 10.1 nM and the “DiscoveRx β-arrestin2 Ymax (%)” value turned out to be 11.2%. In addition, in experiment [3], the “IP-1 Ymax (%)” value came to 3.8% and the EC50 was 20.1 nM.
Consider `CCc1nc2c(C)cc(C)nc2n1Cc1ccc(-c2cc(-c3ccccc3)ccc2OCC(=O)O)cc1` [Example 69, 2-((4″-((2-ethyl-5,7-dimethyl-3H-imidazo[4,5-b]pyridin-3-yl)methyl)-[1,1′:3′,1″-terphenyl]-4′-yl)oxy)acetic acid], for which, in experiment [1], the “BRET β-Arrestin2 High AT1R Expression Ymax (%)” value stood at 10.3% and the 50% effective concentration (EC50) turned out to be 1500 nM. Also, in experiment [2], a half-maximal effect (EC50) was put at 376 nM and the “DiscoveRx β-arrestin2 Ymax (%)” value is reported as 8.5%. In addition, in experiment [3], the EC50 was greater than 100000 nM.
Taken in the same sequence, the figures for `CCCCC1=NC2(CCCC2)C(=O)N1Cc1ccc(-c2cc(-c3ccc(C(=O)NC)cc3)ccc2-c2nn[nH]n2)cc1` [Example 124] were 32.6%, 138 nM, 64.9 nM, 28.1% and greater than 100000 nM.
The corresponding values for `CCCCC1=NC2(CCCC2)C(=O)N1Cc1ccc(-c2cc(-c3cccnc3)ccc2-c2nn[nH]n2)cc1` [Example 125] are 15.1%, 300 nM, 45.3 nM, 16.6% and greater than 100000 nM.
With `CCc1nc2c(C)cc(C)nc2n1Cc1ccc(-c2cc(C3CCCCC3)ccc2-c2nn[nH]n2)cc1` [Example 71, 3-((5′-Cyclohexyl-2′-(2H-tetrazol-5-yl)-[1,1′-biphenyl]-4-yl)methyl)-2-ethyl-5,7-dimethyl-3H-imidazo[4,5-b]pyridine], in experiment [1], the “BRET β-Arrestin2 High AT1R Expression Ymax (%)” value came to 86.6% and the EC50 turned out to be 23.3 nM. Besides, in experiment [2], it took 17.4 nM to reach a half-maximal effect (EC50) and the “DiscoveRx β-arrestin2 Ymax (%)” value came out at 46.8%. In experiment [3], the “IP-1 Ymax (%)” value is 11.8% and the EC50 worked out at 48600 nM.
Regarding `CCCCC1=NC2(CCCC2)C(=O)N1Cc1ccc(-c2cc(-c3cccs3)ccc2-c2nn[nH]n2)cc1` [Example 131], in experiment [1], the “BRET β-Arrestin2 High AT1R Expression Ymax (%)” value was 42.5% and the response was half-maximal at 49 nM (EC50). Also, in experiment [2], the midpoint of the response, the EC50, lay at 13.7 nM and the “DiscoveRx β-arrestin2 Ymax (%)” value is on record as 19.1%. Besides, the EC50 in experiment [3] is greater than 100000 nM.
With `CCc1nc2c(C)cc(C)nc2n1Cc1ccc(-c2cc(-c3cncn3C)ccc2-c2nn[nH]n2)cc1` [Example 58], in experiment [1], the “BRET β-Arrestin2 High AT1R Expression Ymax (%)” value came to 46.2% and the EC50 is 190 nM. In experiment [2], the half-maximal effective concentration (EC50) was found to be 86.2 nM and the “DiscoveRx β-arrestin2 Ymax (%)” value stood at 12.7%. Besides, in experiment [3], the “IP-1 Ymax (%)” value is given as 3.1% and the concentration giving a half-maximal response (EC50) amounted to 427 nM.
Turning to `CCCCOC(=O)NS(=O)(=O)c1sc(-c2ccccc2C(F)(F)F)cc1-c1ccc(Cn2c(CC)nc3c(C)cc(C)nc32)cn1` [Example 46, Butyl (3-(5-((2-ethyl-5,7-dimethyl-3H-imidazo[4,5-b]pyridin-3-yl)methyl)pyridin-2-yl)-5-(2-(trifluoromethyl)phenyl)thiophen-2-yl)sulfonylcarbamate], in experiment [1], the “BRET β-Arrestin2 High AT1R Expression Ymax (%)” value worked out at 84.8% and the concentration for a half-maximal effect (EC50) was found to be 13.1 nM. In experiment [2], a half-maximal response (EC50) required 32 nM and the “DiscoveRx β-arrestin2 Ymax (%)” value was found to be 45.1%. In experiment [3], the “IP-1 Ymax (%)” value is recorded as 15.4% and the 50% effective concentration (EC50) came to 355 nM.
Take `CCc1nc2c(C)cc(C)nc2n1Cc1ccc(-c2cc(C3CCCO3)ccc2-c2nn[nH]n2)cc1` (single isomer, unassigned) [Example 74, 2-ethyl-5,7-dimethyl-3-((5′-(tetrahydrofuran-2-yl)-2′-(2H-tetrazol-5-yl)-[1,1′-biphenyl]-4-yl)methyl)-3H-imidazo[4,5-b]pyridine]: in experiment [1], the “BRET β-Arrestin2 High AT1R Expression Ymax (%)” value is on record as 3.2% and the EC50 is greater than 100000 nM. Besides, in experiment [2], the response was half-maximal at 391 nM (EC50) and the “DiscoveRx β-arrestin2 Ymax (%)” value is reported as 3.9%. Besides, in experiment [3], the concentration giving a half-maximal response (EC50) was greater than 100000 nM.
Turning to `CCCCC1=NC2(CCCC2)C(=O)N1Cc1ccc(-c2cc(-c3ccsn3)ccc2-c2nn[nH]n2)cc1` [Example 123, 2-butyl-3-((5′-(isothiazol-3-yl)-2′-(2H-tetrazol-5-yl)-[1,1′-biphenyl]-4-yl)methyl)-1,3-diazaspiro[4.4]non-1-en-4-one], in experiment [1], the “BRET β-Arrestin2 High AT1R Expression Ymax (%)” value is recorded as 20.6% and the EC50 was 65.3 nM. Besides, in experiment [2], the concentration for a half-maximal effect (EC50) amounted to 9.7 nM and the “DiscoveRx β-arrestin2 Ymax (%)” value worked out at 4.9%. The EC50 in experiment [3] was greater than 100000 nM.
As for `CCc1nc2c(C)cc(C)nc2n1Cc1ccc(-c2cc(-c3ccc(F)cc3F)ccc2-c2nn[nH]n2)cc1` [Example 54], in experiment [1], the “BRET β-Arrestin2 High AT1R Expression Ymax (%)” value is 89.7% and the EC50 worked out at 5.7 nM. Further, in experiment [2], the EC50 worked out at 5.9 nM and the “DiscoveRx β-arrestin2 Ymax (%)” value stood at 39.5%. In experiment [3], the “IP-1 Ymax (%)” value stood at 7.0% and the EC50 was determined as 10.5 nM.
As for `CCCCOC(=O)NS(=O)(=O)c1sc(-c2ccccc2)cc1-c1ccc(Cn2c(CC)nc3c(C)cc(C)nc32)cc1` [Example 49, Butyl (3-(4-((2-ethyl-5,7-dimethyl-3H-imidazo[4,5-b]pyridin-3-yl)methyl)phenyl)-5-phenylthiophen-2-yl)sulfonylcarbamate], in experiment [1], the “BRET β-Arrestin2 High AT1R Expression Ymax (%)” value is listed as 78.3% and a half-maximal effect (EC50) was put at 11.2 nM. For the same compound, in experiment [2], the EC50 was found to be 10.9 nM and the “DiscoveRx β-arrestin2 Ymax (%)” value was 47.6%. For the same compound, in experiment [3], the “IP-1 Ymax (%)” value is 4.2% and the concentration giving a half-maximal response (EC50) is 21 nM.
As to `CCc1nc2c(C)cc(C)nc2n1Cc1ccc(-c2cc(-c3cccn3C)ccc2-c2nn[nH]n2)cc1` [Example 22], in experiment [1], the “BRET β-Arrestin2 High AT1R Expression Ymax (%)” value worked out at 57.1% and the EC50 stood at 33.7 nM. Besides, in experiment [2], the concentration giving a half-maximal response (EC50) came out at 10.3 nM and the “DiscoveRx β-arrestin2 Ymax (%)” value came out at 14.8%. Moreover, in experiment [3], the “IP-1 Ymax (%)” value was 2.4% and the EC50 came out at 34.4 nM.
Consider `CCCCOC(=O)NS(=O)(=O)c1sc(-c2ccccc2C)cc1-c1ccc(Cn2c(CC)nc3c(C)cc(C)nc32)cc1` [Example 40, Butyl (3-(4-((2-ethyl-5,7-dimethyl-3H-imidazo[4,5-b]pyridin-3-yl)methyl)phenyl)-5-(o-tolyl)thiophen-2-yl)sulfonylcarbamate], for which, in experiment [1], the “BRET β-Arrestin2 High AT1R Expression Ymax (%)” value turned out to be 84.6% and the EC50 is 14 nM. Moreover, in experiment [2], the EC50 came to 9.3 nM and the “DiscoveRx β-arrestin2 Ymax (%)” value is listed as 36.4%. In experiment [3], the “IP-1 Ymax (%)” value is recorded as 8.5% and the half-maximal effective concentration (EC50) was 11.9 nM.
In the case of `CCc1nc2c(C)cc(C)nc2n1Cc1ccc(-c2cc(-c3ccccc3O)ccc2C(=O)O)cc1` [Example 184], in experiment [1], the “BRET β-Arrestin2 High AT1R Expression Ymax (%)” value stood at 85.9% and the EC50 is 14.7 nM. In experiment [2], the concentration for a half-maximal effect (EC50) was found to be 31 nM and the “DiscoveRx β-arrestin2 Ymax (%)” value turned out to be 51.2%. Also, in experiment [3], the “IP-1 Ymax (%)” value is 12.0% and the EC50 amounted to 110 nM.
On to `CCc1nc2c(C)cc(C)nc2n1Cc1ccc(-c2cc(Oc3ccccc3)ccc2C(=O)O)cc1` [Example 213, 4′-((2-Ethyl-5,7-dimethyl-3H-imidazo[4,5-b]pyridin-3-yl)methyl)-5-phenoxy-[1,1′-biphenyl]-2-carboxylic acid], for which, in experiment [1], the “BRET β-Arrestin2 High AT1R Expression Ymax (%)” value was found to be 89.9% and the half-maximal effective concentration (EC50) amounted to 92.9 nM. Moreover, in experiment [2], the EC50 was found to be 215 nM and the “DiscoveRx β-arrestin2 Ymax (%)” value was found to be 27.3%. Also, in experiment [3], the “IP-1 Ymax (%)” value is 6.9% and the 50% effective concentration (EC50) was 862 nM.
Regarding `CCc1nc2c(C)cc(C)nc2n1Cc1ccc(-c2cc(-c3cccnc3)ccc2-c2nn[nH]n2)cc1` [Example 52], in experiment [1], the “BRET β-Arrestin2 High AT1R Expression Ymax (%)” value came out at 23.4% and the concentration for a half-maximal effect (EC50) was 30.7 nM. In experiment [2], the EC50 was 5.5 nM and the “DiscoveRx β-arrestin2 Ymax (%)” value came to 5.0%. The EC50 in experiment [3] was greater than 1000 nM.
For the compound `CCc1nc2c(C)cc(C)nc2n1Cc1ccc(-c2cc(N3CC(C)(C)c4ccccc43)ccc2-c2nn[nH]n2)cc1` [Example 84], in experiment [1], the “BRET β-Arrestin2 High AT1R Expression Ymax (%)” value came out at 88.9% and a half-maximal effect (EC50) was put at 36.4 nM. In experiment [2], the EC50 is 91.6 nM and the “DiscoveRx β-arrestin2 Ymax (%)” value is 35.3%. In addition, in experiment [3], the “IP-1 Ymax (%)” value worked out at 6.6% and the 50% effective concentration (EC50) amounted to 126 nM.
As to `CCc1nc2c(C)cc(C)nc2n1Cc1ccc(-c2cc(-c3ccc4ncccc4c3)ccc2-c2nn[nH]n2)cc1` [Example 13], in experiment [1], the “BRET β-Arrestin2 High AT1R Expression Ymax (%)” value amounted to 53.8% and the midpoint of the response, the EC50, lay at 11.5 nM. Moreover, in experiment [2], the 50% effective concentration (EC50) was found to be 12.9 nM and the “DiscoveRx β-arrestin2 Ymax (%)” value was found to be 24.8%. Moreover, the concentration for a half-maximal effect (EC50) in experiment [3] was greater than 1000 nM.
